Tests used:
[1] = system: milkweed bug (Oncopeltus faciatus [Dallas]); experiment: Initial contact activity against milkweed bug (percent kill); assay type: in vivo; details: 72 hours exposure, read-out: Percent Kill MWB, initial activity
Protocol: (§1) The test compound was dissolved in a small amount of acetone, and the acetone solution was dispersed in water containing one drop of isooctylphenyl polyethoxyethanol to make a solution having 1250 ppm (w/w) active ingredient. Aliquots of this solution were diluted with an appropriate amount of water to provide solutions containing various concentrations of active ingredient. Test organisms and techniques were as follows: the activity against Mexican bean beetle (Epilachna varivestis Muls.) and southern armyworm (Spodoptera eridania [Cram.]) was evaluated by dipping the leaves of pinto bean plants into the test solution and infesting the leaves with the appropriate immature-form insects when the foliage had dried. The activity against the pea aphid (Acyrthosiphon pisum [Harris]) was evaluated on broad bean plants whose leaves were dipped before infestation with adult aphids. The activity against twospotted spider mites (Tetranychus urticae Koch) was evaluated on pinto bean plants whose leaves were dipped after infestation with adult mites. The activity against the milkweed bug (Oncopeltus faciatus [Dallas]) was evaluated by spraying the test solutions into glass dishes or jars containing the adult insects. Following application of the compound and infestation the tests were maintained in a holding room at 80° F. and 50% relative humidity for an exposure period of 72 hours. At the end of this time the dead and living insects or mites were counted and the percent kill was calculated. Results of these tests are summarized in Table I. Most of the compounds tested were active against all the insects.

[2] = system: Mexican bean beetle (Epilachna varivestis Muls.); experiment: Initial contact activity against Mexican bean beetle (percent kill); assay type: in vivo; details: 72 hours exposure, read-out: Percent Kill MBB, initial activity
Protocol: as §1

[3] = system: southern armyworm (Spodoptera eridania [Cram.]); experiment: Initial contact activity against southern armyworm (percent kill); assay type: in vivo; details: 72 hours exposure, read-out: Percent Kill AW, initial activity
Protocol: as §1

[4] = system: pea aphid (Acyrthosiphon pisum [Harris]); experiment: Initial contact activity against pea aphid (percent kill); assay type: in vivo; details: 72 hours exposure, read-out: Percent Kill PA, initial activity
Protocol: as §1

[5] = system: twospotted spider mites (Tetranychus urticae Koch); experiment: Initial contact activity against twospotted spider mite (percent kill); assay type: in vivo; details: 72 hours exposure, read-out: Percent Kill SM, initial activity
Protocol: as §1

Milkweed bug = experiment: 7-day residual contact activity against milkweed bug (percent kill); assay type: in vivo, Oncopeltus faciatus; details: Oncopeltus fasciatus, 168 h, treated surface aged seven days in light and air, read-out: Percent Kill MWB, 7-day residual activity
Protocol: as §1
(§2) The residual contact activity of certain of the compounds was determined on the same organisms using the techniques described above, except that in each case the treated surface was allowed to dry and was exposed to normal light and air for seven days before introduction of the mites or insects. The seven day residual activity was minimal for the mite but substantial against the remaining organisms. Again, the remarkable activity of some of these compounds against milkweed bug and Mexican bean beetle was noted.

Mexican bean beetle = experiment: 7-day residual contact activity against Mexican bean beetle (percent kill); assay type: in vivo; details: Epilachna varivestis, 168 h, treated surface aged seven days in light and air, read-out: Percent Kill MBB, 7-day residual activity
Protocol: as §1, §2

Southern armyworm = experiment: 7-day residual contact activity against southern armyworm (percent kill); assay type: in vivo; details: Spodoptera eridania, 168 h, treated surface aged seven days in light and air, read-out: Percent Kill AW, 7-day residual activity
Protocol: as §1, §2

Pea aphid = experiment: 7-day residual contact activity against pea aphid (percent kill); assay type: in vivo; details: Acyrthosiphon pisum, 168 h, treated surface aged seven days in light and air, read-out: Percent Kill PA, 7-day residual activity
Protocol: as §1, §2

Twospotted spider mite = experiment: 7-day residual contact activity against twospotted spider mite (percent kill); assay type: in vivo; details: Tetranychus urticae, 168 h, treated surface aged seven days in light and air, read-out: Percent Kill SM, 7-day residual activity
Protocol: as §1, §2

[6] = prior art, Elliott, et al.; cited from earlier work

CC1(C)C(C=C(Cl)Sc2ccccc2)C1C(=O)OC(C#N)c1cccc(Oc2ccccc2)c1 (mixture of isomers) [Example 3, α-cyano-3-phenoxybenzyl cis,trans-3-[2-(E,Z)-chloro-2-phenylthioethenyl]-2,2-dimethylcyclopropanecarboxylate]
mortality at 20 ppm [1]: 70% | mortality at 78 ppm [1]: 100% | mortality at 312 ppm [1]: 100% | mortality at 1250 ppm [1]: 100% | mortality at 1.2 ppm [2]: 80% | mortality at 5 ppm [2]: 100% | mortality at 20 ppm [2]: 92% | mortality at 78 ppm [2]: 92% | mortality at 1250 ppm [2]: 94% | mortality at 1.2 ppm [3]: 0% | mortality at 5 ppm [3]: 0% | mortality at 20 ppm [3]: 0% | mortality at 78 ppm [3]: 75% | mortality at 1250 ppm [3]: 100% | mortality at 20 ppm [4]: 27% | mortality at 78 ppm [4]: 60% | mortality at 312 ppm [4]: 85% | mortality at 1250 ppm [4]: 100% | mortality at 20 ppm [5]: 0% | mortality at 78 ppm [5]: 0% | mortality at 312 ppm [5]: 0% | mortality at 1250 ppm [5]: 49% | activity at 78 ppm (Milkweed bug): 70% | activity at 312 ppm (Milkweed bug): 85% | activity at 1250 ppm (Milkweed bug): 100% | activity at 2.5 ppm (Mexican bean beetle; 2.5 ppm): 66% | activity at 10 ppm (Mexican bean beetle; 10 ppm): 75% | activity at 39 ppm (Mexican bean beetle; 39 ppm): 100% | activity at 78 ppm (Mexican bean beetle): 100% | activity at 1250 ppm (Mexican bean beetle): 97% | activity at 20 ppm (Southern armyworm): 62% | activity at 78 ppm (Southern armyworm): 56% | activity at 312 ppm (Southern armyworm): 53% | activity at 1250 ppm (Southern armyworm): 100% | activity at 78 ppm (Pea aphid): 50% | activity at 312 ppm (Pea aphid): 65% | activity at 1250 ppm (Pea aphid): 100% | activity at 1250 ppm (Twospotted spider mite): 0%

CC1(C)C(C=C(Cl)Cl)C1C(=O)OCc1cccc(Oc2ccccc2)c1 (stereo not drawn) [3-phenoxybenzyl 3-(β,β-dichlorovinyl)-2,2-dimethylcyclopropanecarboxylate]
resistance to photo-oxidative degradation in words [6]: remarkably resistent to photo-oxidative degradation

CC1(C)C(C=C(Cl)Sc2ccccc2)C1C(=O)OCc1cccc(Oc2ccccc2)c1 (mixture of isomers) [Example 4, 3-phenoxybenzyl cis,trans-3-[2-(E,Z)chloro-2-phenylthioethenyl]-2,2-dimethylcyclopropanecarboxylate]
mortality at 78 ppm [1]: 10% | mortality at 312 ppm [1]: 90% | mortality at 1250 ppm [1]: 100% | mortality at 5 ppm [2]: 100% | mortality at 20 ppm [2]: 94% | mortality at 78 ppm [2]: 100% | mortality at 312 ppm ([2]; 312 ppm): 100% | mortality at 1250 ppm [2]: 95% | mortality at 5 ppm [3]: 11% | mortality at 20 ppm [3]: 0% | mortality at 78 ppm [3]: 68% | mortality at 312 ppm ([3]; 312 ppm): 89% | mortality at 1250 ppm [3]: 100% | mortality at 78 ppm [4]: 75% | mortality at 312 ppm [4]: 100% | mortality at 1250 ppm [4]: 100% | mortality at 312 ppm [5]: 31% | mortality at 1250 ppm [5]: 42% | activity at 312 ppm (Milkweed bug): 20% | activity at 1250 ppm (Milkweed bug): 100% | activity at 20 ppm (Mexican bean beetle; 20 ppm): 89% | activity at 78 ppm (Mexican bean beetle): 100% | activity at 312 ppm (Mexican bean beetle; 312 ppm): 100% | activity at 1250 ppm (Mexican bean beetle): 100% | activity at 20 ppm (Southern armyworm): 0% | activity at 78 ppm (Southern armyworm): 5% | activity at 312 ppm (Southern armyworm): 55% | activity at 1250 ppm (Southern armyworm): 95% | activity at 312 ppm (Pea aphid): 0% | activity at 1250 ppm (Pea aphid): 85% | activity at 1250 ppm (Twospotted spider mite): 0%

CC1(C)C(C=CSc2ccccc2)C1C(=O)OC(C#N)c1cccc(Oc2ccccc2)c1 (mixture of isomers) [Example 2, α-cyano-3-phenoxybenzyl cis,trans-3-[2-(E,Z)-phenylthioethenyl]-2,2-dimethylcyclopropanecarboxylate]
mortality at 20 ppm [1]: 0% | mortality at 78 ppm [1]: 20% | mortality at 312 ppm [1]: 90% | mortality at 1250 ppm [1]: 100% | mortality at 1.2 ppm [2]: 6% | mortality at 5 ppm [2]: 0% | mortality at 20 ppm [2]: 22% | mortality at 78 ppm [2]: 80% | mortality at 1250 ppm [2]: 100% | mortality at 1.2 ppm [3]: 0% | mortality at 5 ppm [3]: 0% | mortality at 20 ppm [3]: 0% | mortality at 78 ppm [3]: 0% | mortality at 1250 ppm [3]: 41% | mortality at 20 ppm [4]: 0% | mortality at 78 ppm [4]: 0% | mortality at 312 ppm [4]: 5% | mortality at 1250 ppm [4]: 75% | mortality at 20 ppm [5]: 0% | mortality at 78 ppm [5]: 0% | mortality at 312 ppm [5]: 0% | mortality at 1250 ppm [5]: 0% | activity at 78 ppm (Milkweed bug): 5% | activity at 312 ppm (Milkweed bug): 0% | activity at 1250 ppm (Milkweed bug): 5% | activity at 20 ppm (Southern armyworm): 0% | activity at 78 ppm (Southern armyworm): 0% | activity at 312 ppm (Southern armyworm): 0% | activity at 1250 ppm (Southern armyworm): 0% | activity at 78 ppm (Pea aphid): 30% | activity at 312 ppm (Pea aphid): 23% | activity at 1250 ppm (Pea aphid): 100% | activity at 1250 ppm (Twospotted spider mite): 0%
